# Laboratory results: ChEMBL document CHEMBL4507281, “Data for DCP probe BI-4394” (2021)
# What was measured:
# Conditions in all cases: Compound concentration 10.0 uM
# [1] = biological target: Sodium-dependent dopamine transporter (Homo sapiens) (UniProt Q01959)
# [2] = biological target: T1, Serine/threonine-protein kinase Nek1 (Homo sapiens) (UniProt Q96PY6)
# T1 sequence (whole entry): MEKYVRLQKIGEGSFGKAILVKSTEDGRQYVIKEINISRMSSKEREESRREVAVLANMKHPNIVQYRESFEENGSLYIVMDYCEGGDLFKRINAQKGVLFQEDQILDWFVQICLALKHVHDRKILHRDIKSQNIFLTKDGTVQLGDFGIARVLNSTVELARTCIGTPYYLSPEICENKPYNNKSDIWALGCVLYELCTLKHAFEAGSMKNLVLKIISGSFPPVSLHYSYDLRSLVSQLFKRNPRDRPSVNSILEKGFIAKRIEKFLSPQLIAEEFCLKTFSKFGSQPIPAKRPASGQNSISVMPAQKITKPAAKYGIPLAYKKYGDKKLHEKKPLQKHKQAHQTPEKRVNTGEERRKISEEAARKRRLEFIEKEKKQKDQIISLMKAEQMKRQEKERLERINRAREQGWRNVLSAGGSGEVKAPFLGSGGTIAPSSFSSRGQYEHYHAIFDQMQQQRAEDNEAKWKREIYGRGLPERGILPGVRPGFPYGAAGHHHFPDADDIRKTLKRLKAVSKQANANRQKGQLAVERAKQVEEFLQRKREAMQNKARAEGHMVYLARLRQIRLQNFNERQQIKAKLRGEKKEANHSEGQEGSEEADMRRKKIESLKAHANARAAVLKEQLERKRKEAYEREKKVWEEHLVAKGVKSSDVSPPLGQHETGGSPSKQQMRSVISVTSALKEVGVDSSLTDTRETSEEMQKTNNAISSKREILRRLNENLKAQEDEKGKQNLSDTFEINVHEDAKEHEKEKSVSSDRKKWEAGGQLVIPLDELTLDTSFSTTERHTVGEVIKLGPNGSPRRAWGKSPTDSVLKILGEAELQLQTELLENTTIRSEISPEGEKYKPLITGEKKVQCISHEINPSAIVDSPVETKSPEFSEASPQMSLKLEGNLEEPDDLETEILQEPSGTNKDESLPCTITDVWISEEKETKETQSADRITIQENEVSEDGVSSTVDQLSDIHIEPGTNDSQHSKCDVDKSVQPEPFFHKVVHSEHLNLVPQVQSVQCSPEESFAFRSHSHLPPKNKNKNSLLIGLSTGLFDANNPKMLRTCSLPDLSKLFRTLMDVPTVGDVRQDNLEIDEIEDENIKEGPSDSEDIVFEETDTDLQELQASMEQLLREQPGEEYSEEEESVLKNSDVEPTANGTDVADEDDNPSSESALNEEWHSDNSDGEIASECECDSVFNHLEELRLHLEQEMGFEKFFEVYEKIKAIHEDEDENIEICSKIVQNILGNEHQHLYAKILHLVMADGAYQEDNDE
# [3] = biological target: Serine/threonine-protein kinase mTOR (Homo sapiens) (UniProt P42345)
# [4] = biological target: T2, Inhibitor of nuclear factor kappa-B kinase subunit beta (Homo sapiens) (UniProt O14920)
# T2 sequence (whole entry): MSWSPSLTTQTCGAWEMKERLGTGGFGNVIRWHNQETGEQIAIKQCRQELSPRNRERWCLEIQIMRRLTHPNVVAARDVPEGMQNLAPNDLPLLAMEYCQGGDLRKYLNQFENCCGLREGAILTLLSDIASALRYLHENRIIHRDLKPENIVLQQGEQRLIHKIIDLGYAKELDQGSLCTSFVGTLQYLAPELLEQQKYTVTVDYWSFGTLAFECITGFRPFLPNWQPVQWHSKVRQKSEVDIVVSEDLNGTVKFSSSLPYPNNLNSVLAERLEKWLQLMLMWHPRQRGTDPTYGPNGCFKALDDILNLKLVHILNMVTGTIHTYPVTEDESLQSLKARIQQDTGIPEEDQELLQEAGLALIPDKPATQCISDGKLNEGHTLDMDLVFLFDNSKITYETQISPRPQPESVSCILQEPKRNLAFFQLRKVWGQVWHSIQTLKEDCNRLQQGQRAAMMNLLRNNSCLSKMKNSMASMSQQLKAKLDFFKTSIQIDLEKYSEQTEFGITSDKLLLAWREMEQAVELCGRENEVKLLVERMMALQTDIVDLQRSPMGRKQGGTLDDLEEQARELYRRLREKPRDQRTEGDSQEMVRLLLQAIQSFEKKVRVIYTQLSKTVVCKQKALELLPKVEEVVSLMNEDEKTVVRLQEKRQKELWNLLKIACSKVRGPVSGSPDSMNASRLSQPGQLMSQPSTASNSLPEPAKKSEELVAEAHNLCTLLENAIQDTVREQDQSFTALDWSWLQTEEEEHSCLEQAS
# Sodium-dependent dopamine transporter (Homo sapiens), sequence (Q01959 whole entry): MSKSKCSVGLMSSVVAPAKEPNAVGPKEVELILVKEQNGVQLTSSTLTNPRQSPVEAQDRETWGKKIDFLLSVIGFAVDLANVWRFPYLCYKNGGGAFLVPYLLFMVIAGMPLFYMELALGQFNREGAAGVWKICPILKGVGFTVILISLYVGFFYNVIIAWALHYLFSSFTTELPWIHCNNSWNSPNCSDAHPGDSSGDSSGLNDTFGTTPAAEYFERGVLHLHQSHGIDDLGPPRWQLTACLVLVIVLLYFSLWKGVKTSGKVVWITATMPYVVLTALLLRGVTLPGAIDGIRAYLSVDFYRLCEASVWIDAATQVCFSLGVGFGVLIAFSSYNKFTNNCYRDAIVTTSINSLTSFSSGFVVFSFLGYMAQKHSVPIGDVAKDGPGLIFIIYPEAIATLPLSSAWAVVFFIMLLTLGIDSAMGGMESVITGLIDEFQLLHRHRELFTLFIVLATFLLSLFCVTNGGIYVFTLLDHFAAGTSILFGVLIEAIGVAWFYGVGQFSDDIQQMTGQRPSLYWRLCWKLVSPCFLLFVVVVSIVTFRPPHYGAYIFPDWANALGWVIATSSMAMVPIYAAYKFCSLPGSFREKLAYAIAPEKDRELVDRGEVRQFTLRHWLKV
smiles,measurement,setting,value
CCOC(=O)c1cc2cc(-c3cc(C(=O)NCc4ccc(C(=O)O)cc4)nn3C)ccc2[nH]1 [BI 4394],inhibition,[1],2.26%
same,residual activity,[2],49%
same,residual activity,[3],78%
same,residual activity,[4],48%
